Results taken from PubChem BioAssay AID298 (DTP/NCI, 2004).
Values joined by “and” are separate entries in the source; they are usually repeats but may differ in a detail not shown here. Equal entries are not always repeated. Records with an inconclusive call do not appear.

Test system: MX-1 breast xenograft, intrarenal, nude mice, tumor weight
Assay: NCI In Vivo Anticancer Drug Screen. Data for tumor model Human Mammary Carcinoma MX-1 Xenograft (intrarenal inoculation) in NU/NU BALB/C (nude) mice
Conditions: endpoint: mean tumor weight change, higher = larger tumour
How it was run: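 Transplantable tumors established in mice; animals dosed with compound or vehicle; survival or tumor size then recorded. Result reported as treated (T) divided by vehicle control (C).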

[1] = dose: 150.0 mg/kg/injection, schedule: Q04DX003 (ip), vehicle: saline with Tween-80
[2] = dose: 300.0 mg/kg/injection, schedule: Q04DX003 (sc), vehicle: saline with Tween-80
[3] = dose: 50.0 mg/kg/injection, schedule: Q04DX003 (ip), vehicle: saline with Tween-80
[4] = dose: 100.0 mg/kg/injection, schedule: Q04DX003 (ip), vehicle: saline with Tween-80
[5] = dose: 75.0 mg/kg/injection, schedule: Q04DX003 (ip), vehicle: saline with Tween-80
[6] = dose: 150.0 mg/kg/injection, schedule: Q04DX003 (ip), vehicle: Klucel (hydroxypropylcellulose) (HPC)
[7] = dose: 300.0 mg/kg/injection, schedule: Q04DX003 (ip), vehicle: Klucel (hydroxypropylcellulose) (HPC)
[8] = dose: 600.0 mg/kg/injection, schedule: Q04DX003 (ip), vehicle: Klucel (hydroxypropylcellulose) (HPC)

SMILES: CN(Cc1cnc2nc(N)nc(N)c2n1)c1c(Cl)cc(C(=O)NC(CCC(=O)O)C(=O)O)cc1Cl (stereo not given)
- T/C (dose: 12.5 mg/kg/injection, schedule: Q01DX010 (sc), vehicle: Klucel (hydroxypropylcellulose) (HPC)): 64 % of control
- T/C (dose: 25.0 mg/kg/injection, schedule: Q01DX010 (sc), vehicle: Klucel (hydroxypropylcellulose) (HPC)): 25 % of control
- T/C (dose: 50.0 mg/kg/injection, schedule: Q01DX010 (sc), vehicle: Klucel (hydroxypropylcellulose) (HPC)): -67 % of control

SMILES: CCOC(=O)C1=C(C)O/C(=C/c2cccc(Cl)c2)C1=O
- T/C [1]: 62 % of control

SMILES: CCN(CC)Cc1cc2[nH]c3c4ccc(Cl)cc4ncc3c2cc1OC
- T/C (dose: 75.0 mg/kg/injection, schedule: Q04DX003 (sc), vehicle: saline with Tween-80): 92 % of control
- T/C [2]: 73 % of control

SMILES: C=C1C(O)C2(O)OCC34C(CC5C(C)=CC(=O)C(O)C5(C)C23)OC(=O)C(OC(=O)C/C=C/CCCCCCCC)C14 (stereo not given)
- T/C (dose: 12.5 mg/kg/injection, schedule: Q04DX003 (ip), vehicle: saline + alcohol): 38 % of control

SMILES: NC(=S)c1ncn(C2OC(COC=O)C(OC=O)C2OC=O)c1NC=O (stereo not given)
- T/C [3]: 105 % of control
- T/C (dose: 100.0 mg/kg/injection, schedule: Q04DX003 (ip), vehicle: Klucel (hydroxypropylcellulose) (HPC)): 47 % of control
- T/C [4]: 103 % of control
- T/C (dose: 200.0 mg/kg/injection, schedule: Q04DX003 (ip), vehicle: Klucel (hydroxypropylcellulose) (HPC)): 31 % of control
- T/C (dose: 200.0 mg/kg/injection, schedule: Q04DX003 (ip), vehicle: saline with Tween-80): 65 % of control
- T/C (dose: 400.0 mg/kg/injection, schedule: Q04DX003 (ip), vehicle: Klucel (hydroxypropylcellulose) (HPC)): 48 % of control
- T/C (dose: 400.0 mg/kg/injection, schedule: Q04DX003 (ip), vehicle: saline with Tween-80): 9 % of control

SMILES: COc1cccc(Sc2ccc([N+](=O)[O-])c3no[n+]([O-])c23)c1
- T/C (dose: 7.5 mg/kg/injection, schedule: Q04DX003 (ip), vehicle: saline with Tween-80): 69 % of control and 86 % of control
- T/C (dose: 30.0 mg/kg/injection, schedule: Q04DX003 (ip), vehicle: saline with Tween-80): 124 % of control
- T/C (dose: 480.0 mg/kg/injection, schedule: Q04DX003 (ip), vehicle: saline with Tween-80): 36 % of control and 41 % of control and 50 % of control

SMILES: O=C(Nc1ccccc1)c1c(O)[nH]c(=S)[nH]c1=O
- T/C [3]: 85 % of control
- T/C [5]: 98 % of control
- T/C [4]: 108 % of control

SMILES: CNC(=O)OCc1nc(SC)n(C)c1COC(=O)NC
- T/C (dose: 28.75 mg/kg/injection, schedule: Q04DX003 (ip), vehicle: saline): -91 % of control
- T/C (dose: 57.5 mg/kg/injection, schedule: Q04DX003 (ip), vehicle: saline): -85 % of control
- T/C (dose: 115.0 mg/kg/injection, schedule: Q04DX003 (ip), vehicle: saline): -63 % of control

SMILES: Cc1ccoc1
- T/C (dose: 50.0 mg/kg/injection, schedule: Q01DX010 (ip), vehicle: saline with Tween-80): 102 % of control
- T/C (dose: 100.0 mg/kg/injection, schedule: Q01DX010 (ip), vehicle: saline with Tween-80): 97 % of control
- T/C (dose: 200.0 mg/kg/injection, schedule: Q01DX010 (ip), vehicle: saline with Tween-80): 104 % of control

SMILES: Nc1nc(N)c2cc(CNc3ccc(C(=O)NC(CC(=O)O)CC(=O)O)cc3)ccc2n1
- T/C (dose: 150.0 mg/kg/injection, schedule: Q04DX003 (sc), vehicle: Klucel (hydroxypropylcellulose) (HPC)): 103 % of control
- T/C (dose: 300.0 mg/kg/injection, schedule: Q04DX003 (sc), vehicle: Klucel (hydroxypropylcellulose) (HPC)): 86 % of control
- T/C (dose: 600.0 mg/kg/injection, schedule: Q04DX003 (sc), vehicle: Klucel (hydroxypropylcellulose) (HPC)): 91 % of control
- T/C (dose: 1200.0 mg/kg/injection, schedule: Q04DX003 (sc), vehicle: Klucel (hydroxypropylcellulose) (HPC)): 101 % of control

SMILES: O=[N+]([O-])c1nccn1CC(O)CO (stereo not given)
- T/C (dose: 300.0 mg/kg/injection, schedule: Q04DX004 (sc), vehicle: saline): 96 % of control
- T/C (dose: 600.0 mg/kg/injection, schedule: Q04DX004 (sc), vehicle: saline): 91 % of control
- T/C (dose: 2400.0 mg/kg/injection, schedule: Q04DX004 (sc), vehicle: saline): 93 % of control

SMILES: C=C1C(O)C2OC3(CCC(/C=C/C(C)C4CC5(C)SC5C5(OC(CC(C)(O)C(=O)O)CCC5O)O4)O3)CCC2OC1C(O)CC(C)C1OC2(CCCCO2)CCC1C (stereo not given)
- T/C (dose: 5.0 micrograms/kg/injection, schedule: Q04DX003 (ip), vehicle: saline + alcohol): 92 % of control
- T/C (dose: 10.0 micrograms/kg/injection, schedule: Q04DX003 (ip), vehicle: saline + alcohol): 84 % of control
- T/C (dose: 40.0 micrograms/kg/injection, schedule: Q04DX003 (ip), vehicle: saline + alcohol): 56 % of control and 76 % of control

SMILES: CSc1ncnc2c1ncn2C1OC(CO)C(O)C1O (stereo not given)
- T/C (dose: 75.0 mg/kg/injection, schedule: Q04DX003 (sc), vehicle: saline + alcohol): 1 % of control
- T/C (dose: 150.0 mg/kg/injection, schedule: Q04DX003 (sc), vehicle: saline + alcohol): -97 % of control

SMILES: COc1cc2oc3c(C)c(=O)cc4oc(-c5ccccc5)cc(c2c2c1CCC(c1ccccc1)O2)c43 (stereo not given)
- T/C (dose: 7.0 mg/kg/injection, schedule: Q04DX003 (ip), vehicle: Klucel (hydroxypropylcellulose) (HPC)): 88 % of control
- T/C (dose: 14.0 mg/kg/injection, schedule: Q04DX003 (ip), vehicle: Klucel (hydroxypropylcellulose) (HPC)): 82 % of control
- T/C (dose: 37.5 mg/kg/injection, schedule: Q04DX003 (ip), vehicle: saline with Tween-80): 111 % of control
- T/C (dose: 56.0 mg/kg/injection, schedule: Q04DX003 (ip), vehicle: Klucel (hydroxypropylcellulose) (HPC)): 107 % of control
- T/C [5]: 77 % of control
- T/C [1]: 117 % of control
- T/C (dose: 300.0 mg/kg/injection, schedule: Q04DX003 (ip), vehicle: saline with Tween-80): 52 % of control

SMILES: CC(=O)NCCSSCCCCS(=O)O
- T/C (dose: 150.0 mg/kg/injection, schedule: Q04DX003 (ip), vehicle: saline): 110 % of control
- T/C (dose: 300.0 mg/kg/injection, schedule: Q04DX003 (ip), vehicle: saline): 112 % of control

SMILES: OC1OC2COC(c3ccccc3)OC2C(O)C1O (stereo not given)
- T/C (dose: 300.0 mg/kg/injection, schedule: Q04DX003 (sc), vehicle: water): 57 % of control
- T/C (dose: 600.0 mg/kg/injection, schedule: Q04DX003 (sc), vehicle: water): 91 % of control
- T/C (dose: 1200.0 mg/kg/injection, schedule: Q04DX003 (sc), vehicle: water): 91 % of control
- T/C (dose: 2400.0 mg/kg/injection, schedule: Q04DX003 (sc), vehicle: water): 105 % of control

SMILES: NC(N)=NS(=O)(=O)c1ccc(NCc2c3ccccc3nc3ccccc23)cc1
- T/C [6]: 38 % of control and 41 % of control
- T/C [7]: 40 % of control and 43 % of control
- T/C [8]: 17 % of control and 22 % of control
- T/C (dose: 1200.0 mg/kg/injection, schedule: Q04DX003 (ip), vehicle: Klucel (hydroxypropylcellulose) (HPC)): 11 % of control and 17 % of control

SMILES: COC1(OC)C2C=CC1CC2
- T/C (dose: 150.0 mg/kg/injection, schedule: Q04DX003 (sc), vehicle: saline with Tween-80): 116 % of control
- T/C [2]: 104 % of control
- T/C (dose: 600.0 mg/kg/injection, schedule: Q04DX003 (sc), vehicle: saline with Tween-80): 121 % of control
- T/C (dose: 1200.0 mg/kg/injection, schedule: Q04DX003 (sc), vehicle: saline with Tween-80): 111 % of control

SMILES: Oc1c(Cl)cc(Cl)cc1C=NCCSc1ccc(Cl)cc1
- T/C [6]: 99 % of control and 112 % of control
- T/C [7]: 95 % of control
- T/C [8]: 104 % of control and 107 % of control

SMILES: NS(=O)(=O)OCCCCCCCOS(N)(=O)=O
- T/C [1]: -40 % of control

SMILES: CC(=O)O[C@H]1C(=O)[C@@]2(C)C(C(OC(=O)c3ccccc3)[C@]3(O)C[C@H](OC(=O)C(OC(=O)CN(C)C)C(NC(=O)c4ccccc4)c4ccccc4)C(C)=C1C3(C)C)C1(OC(C)=O)COC1C[C@@H]2O (stereo not given in full)
- T/C (dose: 1.88 mg/kg/injection, schedule: Q01DX009 (ip), vehicle: water): 64 % of control
- T/C (dose: 3.75 mg/kg/injection, schedule: Q01DX009 (ip), vehicle: water): 5 % of control
- T/C (dose: 5.9 mg/kg/injection, schedule: Q01DX009 (ip), vehicle: water): -78 % of control
- T/C (dose: 7.5 mg/kg/injection, schedule: Q01DX009 (ip), vehicle: water): 4 % of control
- T/C (dose: 8.9 mg/kg/injection, schedule: Q01DX009 (ip), vehicle: water): -53 % of control
- T/C (dose: 13.3 mg/kg/injection, schedule: Q01DX009 (ip), vehicle: water): -100 % of control
- T/C (dose: 15.0 mg/kg/injection, schedule: Q01DX009 (ip), vehicle: water): -80 % of control
- T/C (dose: 20.0 mg/kg/injection, schedule: Q01DX009 (ip), vehicle: water): -100 % of control

SMILES: CN(N=O)C(=O)N[C@@H](C=O)[C@@H](O)[C@H](O)[C@H](O)CO
- T/C (dose: 37.0 mg/kg/injection, schedule: Q04DX003 (ip), vehicle: other): 193 % of control
- T/C (dose: 75.0 mg/kg/injection, schedule: Q04DX003 (ip), vehicle: other): 117 % of control
- T/C (dose: 150.0 mg/kg/injection, schedule: Q04DX003 (ip), vehicle: other): 70 % of control
- T/C (dose: 150.0 mg/kg/injection, schedule: Q04DX003 (sc), vehicle: saline): 63 % of control
